One series has as its system male SD rats. The experiment in a line: Intracerebral histamine release promotion test. Format: in vivo. To be noted: 30 mg/kg orally, Pargyline-treated male SD rats, 2 hours after administration. As for the experimental part:
A histamine 3 receptor antagonist or inverse-agonist is reported to promote histamine release at the nerve end presynaptic region in a brain. For the purpose of investigating the effect of the medicine of the invention on these, a test compound suspended in an aqueous 0.5% methyl cellulose solution was orally administered to male SD rats (7 to 10-week age, 200 to 300 g) treated with a monoamine oxidase inhibitor (Pargyline). 2 hours after the medicine administration, the rats were killed in euthanasia, and the brain tissue was rapidly taken out. According to a Miyamoto et al's method, the concentration of histamine and its main metabolite, tele-methylhistamine in the brain tissue was measured [see Analytical Biochemistry, Vol. 334, p. 89 (2004)].

A short description of series [1]: Thermal and light stability compared with the amorphous compound. Format: physicochemical. The note with it: as compared with amorphous compound.

In the case of `Cc1nc2cccc(C(F)(F)F)c2c(=O)n1-c1ccc(OCCCN2CCCC2)cc1` [form I crystal, 2-methyl-3-{4-[3-(1-pyrrolidinyl)propoxy]phenyl}-5-trifluoromethyl-4(3H)-quinazolinone], the brain tele-methylhistamine level entry with male SD rats is “significantly increased”. In addition, in series [1], the light stability result was “excellent” and the thermal stability result is recorded as “excellent”.

Source of the values: patent publication US7790731B2 (Banyu Pharmaceutical Co. Ltd., priority 2005, dated 2010).
